Laboratory results from US20240024317A1, “CANCER TREATMENT USING BOSENTAN IN COMBINATION WITH A CHECKPOINT INHIBITOR” (Materia Therapeutics Inc., priority 2020, published 2024).

Test system: 4T1 tumors
Assay: CD3/CD31 immunofluorescence: T cell proximity to endothelial cells and area fractions
Assay type: in vivo, mice
Description: Because reducing collagen I levels and tissue stiffness decompresses vessels, it was hypothesized that hypoxia, which is an indicator of decreased blood flow to the tumor, would be reduced with bosentan treatment. […] For the hypoxia studies, Mice bearing orthotopic E0771 or 4T1 breast tumors were injected (intraperitoneal) with 60 mg/kg of pimonidazole HCl at 2 hr prior to tumor removal. Prior to tumors excision, animals were anesthetized via Avertin (200 mg/kg, intraperitoneal). Primary tumors were then excised, fixed in 4% PFA, embedded in OCT and processed accordingly for IHC. Hypoxic regions were detected using the mouse anti-pimonidazole RED 549 conjugate antibody (HP7-100Kit, 1:100). Hypoxic area fraction across different treatment groups was normalized to DAPI staining. For fluorescent immunohistochemistry, tumors were removed, washed twice in 1× PBS for 10 min and incubated with 4% PFA overnight at 4° C. The fixative was aspirated, and samples washed twice in 1× PBS for 10 min. Fixed tissues were embedded in optimal cutting temperature compound in cryomolds (Tissue-Tek) and frozen completely at −20° C. Transverse 30 μm thick tumor sections were produced using the Tissue-Tek Cryo3 (SAKURA). Positively charged HistoBond microscope slides (Marienfeld) were used to bond four tissue sections per tumor. Tumor sections were then incubated in blocking solution (10% fetal bovine serum, 3% donkey serum, 1× PBS) for 2h and immunostained with the following primary antibodies; rabbit anti-Collagen I (ab4710, Abcam 1:100), rabbit anti-CD31 (ab28364, Abcam 1:50), rat anti-CD3 (17A2, BioLegend 1:50) and aSMA (ab5694, Abcam 1:50) overnight at 4° C. Secondary antibodies against rabbit, mouse or rat conjugated to Alexa Fluor 488 or 647 (Invitrogen) were used at 1:400 dilution. […] CD31 signal was detected with Alexa Fluor-488 anti-rabbit IgG (H+L) and CD3 signal with Alexa Fluor-647 anti-rat IgG (H+L) secondary antibodies. Tumor associated T cell and vessel content was determined by the CD31 and CD3 area fraction normalized to DAPI staining. […]

## COc1ccccc1Oc1c(NS(=O)(=O)c2ccc(C(C)(C)C)cc2)nc(-c2ncccn2)nc1OCCO [bosentan, 4-tert-butyl-N-[6-(2-hydroxy-ethoxy)-5-(2-methoxy-phenoxy)-2-(pyrimidin-2-yl)pyrimidin-4-yl] benzenesulfonamide]
  T cells colocalizing with endothelial cells (CD3+/CD31+ proximity): more T cells colocalizing with endothelial cells
  area fraction of CD3+ staining: no change
  area fraction of CD31+ staining: no change
